ChEMBL document CHEMBL4483862, “Open-source discovery of chemical leads for next-generation chemoprotective antimalarials” (2018)
pIC50: −log10 of the molar value.

System: Plasmodium berghei
Assay: Luciferase/luciferin-expressing antifolate-resistant parasites were used to infect a culture of HepG2 cells that were pre-incubated with compounds. Infected hepatocytes emit light due to the luciferase reaction. Assay results are presented as the percent inhibition of light emission compared to control. […]
Type: functional
Details: sporozoite; for IC90: read-out: LUCIFERASE INFECTION ASSAY - IC90
[1] = read-out: LUCIFERASE INFECTION ASSAY - IC50

Compound	IC90 [µM]	other results
O=S(=O)(Cc1cc(N2CCN(c3ccccc3)CC2)nc(-c2ccccn2)n1)c1ccccc1	> 7	pIC50 [1]: < 5.15
CC(=O)c1ccc(S(=O)(=O)N(Cc2c(F)cccc2Cl)C2CC2)cc1	> 10	pIC50 [1]: < 5.00
Cc1noc(-c2ccc(Cl)cc2)c1C(=O)ON=C(N)c1ccc(C(C)(C)C)cc1	> 8.01	pIC50 (FFLUC_HILL_SLOPE 0.0669, FFLUC_R_SQUARED 0.264, read-out: LUCIFERASE INFECTION ASSAY - IC50): < 5.10
COc1ccc(-c2nc(C(=O)NC3CCCC3)cc3c2[nH]c2ccccc23)cc1	> 8.56	pIC50 [1]: 5.07
CCNC(=O)C1CCCN(CCOc2ccc(Cl)cc2)CC1 (configuration not stated)	> 10.2	pIC50 [1]: < 4.99
Cc1cc(N(Cc2ccc(C(C)C)cc2)C2CC2)n2ncnc2n1	> 10	pIC50 (HEPG2TOX_HILL_SLOPE 2.35, HEPG2TOX_R_SQUARED 0.908, PBLUC_HILL_SLOPE 2.49, PBLUC_R_SQUARED 0.764, read-out: LUCIFERASE INFECTION ASSAY - IC50): 5.31
CCOc1ccc(C(=O)NNC(=O)c2cc(Cl)ccc2O)cc1	> 10	pIC50 (HEPG2TOX_HILL_SLOPE 1.98, HEPG2TOX_R_SQUARED 0.918, PBLUC_HILL_SLOPE 3.04, PBLUC_R_SQUARED 0.138, read-out: LUCIFERASE INFECTION ASSAY - IC50): 5.11
COc1ccc(-c2cnc3ccc(Cc4ccc(F)cc4)nn23)cc1OC	6.11	pIC50 (HEPG2TOX_HILL_SLOPE 7.18, HEPG2TOX_R_SQUARED 0.189, PBLUC_HILL_SLOPE 3.8, PBLUC_R_SQUARED 0.0747, read-out: LUCIFERASE INFECTION ASSAY - IC50): 5.46
CCn1c(SCC(=O)Nc2cc(Cl)ccc2O)nnc1-c1ccncc1	> 8.46	pIC50 [1]: < 5.07
Cc1ccc(N2C(=O)C=CC2=O)cc1C	12.2	pIC50 [1]: 5.18
O=C1Nc2ccc([N+](=O)[O-])cc2/C1=N/NC(=S)NC1CCCCC1	3.82	pIC50 (HEPG2TOX_HILL_SLOPE 8.71, HEPG2TOX_R_SQUARED 0.815, PBLUC_HILL_SLOPE 16.7, PBLUC_R_SQUARED 0.29, read-out: LUCIFERASE INFECTION ASSAY - IC50): 5.47
Cc1ccc(-n2c(C)cc(C(=O)CSc3nc(N)cc(N)n3)c2C)cc1C	4.39	pIC50 (HEPG2TOX_HILL_SLOPE 0.381, HEPG2TOX_R_SQUARED 0.896, PBLUC_HILL_SLOPE 2.47, PBLUC_R_SQUARED 0.602, read-out: LUCIFERASE INFECTION ASSAY - IC50): 5.74
COc1ccc(CNC(=O)Cn2ncc(Cl)c(Cl)c2=O)cc1OC	> 10	pIC50 [1]: < 5.00
Cc1onc(-c2c(Cl)cccc2Cl)c1NC(=O)Nc1cscc1S(=O)(=O)C(C)C	> 6.96	pIC50 (FFLUC_HILL_SLOPE 2.28, FFLUC_R_SQUARED 0.234, read-out: LUCIFERASE INFECTION ASSAY - IC50): < 5.16
O=C(/C(Br)=C/c1ccc([N+](=O)[O-])cc1)c1ccccc1	> 10	pIC50 (HEPG2TOX_HILL_SLOPE 17, HEPG2TOX_R_SQUARED 0.837, PBLUC_HILL_SLOPE 13.5, PBLUC_R_SQUARED 0.0643, read-out: LUCIFERASE INFECTION ASSAY - IC50): 5.04
Cc1ccc(-c2csc(Nc3ccccn3)n2)c(C)c1	> 10	pIC50 (HEPG2TOX_HILL_SLOPE 8.07, HEPG2TOX_R_SQUARED 0.196, PBLUC_HILL_SLOPE 0.693, PBLUC_R_SQUARED 0.516, read-out: LUCIFERASE INFECTION ASSAY - IC50): 6.36
Cc1cc(C)c(C)c(S(=O)(=O)N2CCN(CC(=O)c3c(N)n(Cc4ccccc4)c(=O)n(C)c3=O)CC2)c1C	> 10	pIC50 (FFLUC_HILL_SLOPE 17, FFLUC_R_SQUARED 0.51, read-out: LUCIFERASE INFECTION ASSAY - IC50): < 5.00
CCC(C)(C)c1ccc(Oc2ccc(NC(=O)c3ccc(OC(F)F)c(OC)c3)cc2)cc1	> 10	pIC50 (HEPG2TOX_HILL_SLOPE 5.1, HEPG2TOX_R_SQUARED 0.781, PBLUC_HILL_SLOPE 1.15, PBLUC_R_SQUARED 0.697, read-out: LUCIFERASE INFECTION ASSAY - IC50): 5.59
CSc1sc(C#N)c2c1/C(=N/OC(=O)c1ccc(Cl)cc1)CCC2	> 8.76	pIC50 (FFLUC_HILL_SLOPE 4.66, FFLUC_R_SQUARED 0.795, read-out: LUCIFERASE INFECTION ASSAY - IC50): < 5.06
Cc1cc(NC(=O)c2ccc(-c3cccc4ccccc34)s2)no1	> 10	pIC50 (PBLUC_HILL_SLOPE 2.6, PBLUC_R_SQUARED 0.519, read-out: LUCIFERASE INFECTION ASSAY - IC50): 5.30
O=C(Nc1cccc(Cl)c1)Nc1ccccc1SCc1ncc(C(F)(F)F)cc1Cl	> 6.99	pIC50 [1]: < 5.16

Compound	IC90 [µM]	other results
O=c1nc(Nc2ccc(SC(F)(F)F)cc2)c2ccccc2o1	0.441	pIC50 (PBLUC_HILL_SLOPE 2.14, PBLUC_R_SQUARED 0.975, read-out: LUCIFERASE INFECTION ASSAY - IC50): 6.80
COc1ccc(-c2nc(C(=O)N3CCc4ccccc43)cs2)cc1OC	2.46	pIC50 (HEPG2TOX_HILL_SLOPE 2.84, HEPG2TOX_R_SQUARED 0.79, PBLUC_HILL_SLOPE 2.13, PBLUC_R_SQUARED 0.686, read-out: LUCIFERASE INFECTION ASSAY - IC50): 6.06
Oc1c(C(Nc2nccs2)c2cccnc2)ccc2cccnc12 (configuration not stated)	3.75	pIC50 (HEPG2TOX_HILL_SLOPE 1.4, HEPG2TOX_R_SQUARED 0.615, PBLUC_HILL_SLOPE 3.49, PBLUC_R_SQUARED 0.793, read-out: LUCIFERASE INFECTION ASSAY - IC50): 5.70
c1ccc(Oc2cccc(Nc3nccc4nc(-c5ccccc5)[nH]c34)c2)cc1	3.51	pIC50 (HEPG2TOX_HILL_SLOPE 1.11, HEPG2TOX_R_SQUARED 0.909, PBLUC_HILL_SLOPE 45.8, PBLUC_R_SQUARED 0.688, read-out: LUCIFERASE INFECTION ASSAY - IC50): 5.48
O=C(c1cc2ccccc2cc1O)N1CCN(Cc2ccc3c(c2)OCO3)CC1	8.06	pIC50 (HEPG2TOX_HILL_SLOPE 11.9, HEPG2TOX_R_SQUARED 0.324, PBLUC_HILL_SLOPE 2.98, 3.06, PBLUC_R_SQUARED 0.831, 0.940, read-out: LUCIFERASE INFECTION ASSAY - IC50): 5.36
c1ccc(NCc2ccc(-c3cn4c(-c5ccccc5)cnc4cn3)cc2)cc1	> 8.77	pIC50 (FFLUC_HILL_SLOPE 2.57, FFLUC_R_SQUARED 0.0602, PBLUC_HILL_SLOPE 15.1, PBLUC_R_SQUARED 0.239, read-out: LUCIFERASE INFECTION ASSAY - IC50): 5.11
O=C(Nc1cccc2c[nH]nc12)c1cn(-c2ccccc2Br)nn1	> 10	pIC50 [1]: < 5.00
CC1(C)CCc2cc(-c3ccnc(S)n3)ccc2O1	> 12.1	pIC50 (FFLUC_HILL_SLOPE 9.25, FFLUC_R_SQUARED 0.0162, PBLUC_HILL_SLOPE 0.814, PBLUC_R_SQUARED 0.637, read-out: LUCIFERASE INFECTION ASSAY - IC50): 5.86
O=C(Nc1ccc(N2CCCCC2)c(C(F)(F)F)c1)c1ccc(-n2nncc2-c2ccc(Cl)cc2)cc1	> 10	pIC50 (PBLUC_HILL_SLOPE 1.22, PBLUC_R_SQUARED 0.481, read-out: LUCIFERASE INFECTION ASSAY - IC50): 5.33
COc1ccc(-c2cnc3cnc(-c4cccc(C(N)=O)c4)cn23)cn1	3.91	pIC50 (PBLUC_HILL_SLOPE 17.6, PBLUC_R_SQUARED 0.459, read-out: LUCIFERASE INFECTION ASSAY - IC50): 5.46
O=C(Oc1ccc(/C=N/n2cnnc2)cc1)c1ccco1	> 10	pIC50 (PBLUC_HILL_SLOPE 1.92, PBLUC_R_SQUARED 0.124, read-out: LUCIFERASE INFECTION ASSAY - IC50): < 5.00
COc1cccc(CN2CCN3C=C(C(=O)Nc4ccc(OCc5ccccc5)cc4)OC3=NC2=O)c1	> 10	pIC50 (HEPG2TOX_HILL_SLOPE 3.22, HEPG2TOX_R_SQUARED 0.229, read-out: LUCIFERASE INFECTION ASSAY - IC50): < 5.00
COc1ccc(-c2ccc(-c3nc4c(c(=O)[nH]c(=O)n4CC(C)C)n3CC(C)C)o2)c([N+](=O)[O-])c1	> 10	pIC50 [1]: < 5.00
Cc1ccc(-n2c(SC(C)C(=O)NCCc3cccs3)nnc2-c2ccccc2F)cc1 (configuration not stated)	> 10	pIC50 (FFLUC_HILL_SLOPE 1.87, FFLUC_R_SQUARED 0.282, HEPG2TOX_HILL_SLOPE 0.0378, HEPG2TOX_R_SQUARED 0.0131, PBLUC_HILL_SLOPE 12.6, PBLUC_R_SQUARED 0.129, read-out: LUCIFERASE INFECTION ASSAY - IC50): < 5.00
CC(C)(C)c1csc(-c2ccc(/C=N/OC(=O)Nc3ccc(Cl)cc3)cc2)n1	> 7.97	pIC50 [1]: < 5.10
COc1cc(OC)cc(-c2cc3c(Nc4ccc5c(c4)OCO5)nccc3[nH]2)c1	6.69	pIC50 (PBLUC_HILL_SLOPE 1.19, PBLUC_R_SQUARED 0.67, read-out: LUCIFERASE INFECTION ASSAY - IC50): 5.97
O=C(Nc1ccc([N+](=O)[O-])cc1)Nc1cccnc1Cl	2.05	pIC50 (PBLUC_HILL_SLOPE 2.35, PBLUC_R_SQUARED 0.752, read-out: LUCIFERASE INFECTION ASSAY - IC50): 6.09
CCCCCc1nnc(NC(=O)c2nccnc2N)s1	4.56	pIC50 (HEPG2TOX_HILL_SLOPE 7.97, HEPG2TOX_R_SQUARED 0.296, PBLUC_HILL_SLOPE 11.4, PBLUC_R_SQUARED 0.31, read-out: LUCIFERASE INFECTION ASSAY - IC50): 5.42
Cc1cc(NC(=O)c2cc(-c3ccc(Br)cc3)nc3ccccc23)n(-c2ccc([N+](=O)[O-])cc2)n1	1.17	pIC50 (HEPG2TOX_HILL_SLOPE 1.65, HEPG2TOX_R_SQUARED 0.917, PBLUC_HILL_SLOPE 13.2, PBLUC_R_SQUARED 0.485, read-out: LUCIFERASE INFECTION ASSAY - IC50): 6.00
OCc1ccc(-c2cnc3cnc(-c4ccc(CNc5ccccc5)cc4)cn23)cc1	> 8.12	pIC50 [1]: 5.22
